In patent US8466107B2, “Fibrin-binding peptides and conjugates thereof” (Bracco Imaging SpA, priority 2006, dated 2013):
Bridge positions count the residues as written; N and C are the ends.

System: neuroblastoma (Neuro-2a) tumor
Experiment: In vivo MRI test of fibrin imaging in neuroblastoma tumor mouse model
Settings: mice with neuroblastoma tumor; 25 μmol/kg iv.; T1 weighted MRI at 2T, 4 h post injection
Text: Three groups of 5 mice each, inoculated with 2·10^6 neuroblastoma cells with PBS, were formed and tested as follows: • Group a: Reference compound 2, • Group b: Chelate Complex 1 • Group c: ProHance® (see Protocol)
At day-10 post tumor cells inoculation, at least 4 mice per group with similar tumor size (5-10 mm in diameter) were selected for the in vivo MRI tests. After pre-contrast MRI acquisition (T1 and T2 high resolution 2D spin-echo and 3D gradient echo images), the test compounds were administered (25 μmol/kg iv.) and MRI was performed at 4 h and 24 h post injection. Maximum signal intensity was measured in the entire tumor area and in each post contrast image covering the whole tumor and the signal was compared to the pre-contrast images. At the end of MRI exams, all animals were sacrificed and the tumor, blood, liver, kidneys and femoral bone were removed and prepared for Gd assay by ICP-AES. […]
The mean signal intensity was measured within a region of interest (ROI) including the entire tumor, drawn by an operator on each MR image using dedicated software (MR Research Systems Ltd, Surrey UK). Signal intensity enhancement (Enh %) was determined as: Enh%=100*(SIx(t)−SI0)/SI0 […]

With “Chelated Complex 1: Gd chelated complex (four DTPA-Glu units on branched lysine linker) conjugated to the fibrin-binding peptide; MRI contrast agent (Ac-WQPCPAESWTFCWDPGGGK-NH2; disulfide 4-12; not fully specified (some residues); also: further groups not given here)” the tumor signal enhancement was “significant tumor signal enhancement”.
